Test results from publication PMC7774954, “Interactomic affinity profiling by holdup assay: Acetylation and distal residues impact the PDZome-binding specificity of PTEN phosphatase” (PLoS ONE, 2020).
*1 amine or outer side, *2 acyl side, *3 side chain or, on linkers, in order; H or OH if unused. Where a SMILES comes first, the peptide text is derived from it. The star is where a group is joined. X1 = O=C(CCCC[C@@H]1SC[C@@H]2NC(=O)N[C@@H]21)NCCCOCCOCCOCCCN*; Suc = O=C(CCC(=O)[*:2])[*:1]

System: 266 human PDZ domains (PDZome)
Assay: Holdup assay (chromatographic retention, PDZome-binding profile, BI)
Design: key to maximal BI / Max BI / BI: binding intensity: 0.00 = no binding, 1.00 = maximal binding; Log(Kd): unit not given here
Procedure: The holdup method is a chromatographic approach in solution developed in our group that allows to measure the binding strength of a peptide, attached to a resin, against a library of domains of a same family. We initially proposed this method to explore the interaction between PBM peptides and the human PDZ domains. Briefly, a soluble cell lysate containing individually overexpressed PDZ domain is incubated until equilibrium with a calibrated amount of streptavidin-resin saturated either with the target biotinylated PBM peptide or with biotin as a reference. The flow-throughs containing the unbound protein fraction are recovered by filtration and loaded on a capillary electrophoresis instrument to quantify the amount of remaining free PDZ. The stronger the steady-state depletion of the PDZ domain in the flow-through as compared to the reference, the stronger the PDZ/PBM binding interaction. The assay is particularly suited to quantitatively evaluate and compare large numbers of interactions. This method delivers, for each PBM/PDZ pair, a "binding intensity" (BI), whose value can in principle range from 0.00 (no binding event detected) to 1.00 (maximal binding event). The approach has been automated and the human PDZ library was recently extended to the complete 266 PDZ domains known in human proteome. […] The high accuracy and efficiency of the holdup assay have been validated previously. Very recently, a manual version of the holdup assay with purified samples and using widespread benchtop equipment has been implemented and has proven to be reliable.
The 266 PDZ domains that constitute the PDZ library (“PDZome V.2”) used in the present work were produced using constructs with optimized boundaries as described previously. All the genes were fused to Maltose-Binding Protein (MBP) or Thioredoxin (THR) tag often used to facilitate the solubilisation of the over-expressed protein, by cloning them into the pETG41A or pETG20A plasmid, respectively. […] The expressed tag-PDZ concentrations were quantified using capillary gel electrophoresis and cell lysates were diluted to reach approximately 5 μM tag-PDZ before freezing in 96-well plates. A detailed protocol of the PDZ library production, expression and benchmarking can be found in [32]. PDZ domains are named according to their originating protein name followed by the PDZ number (e.g. NHERF1-1 as the first PDZ domain of the NHERF1 protein).
The holdup assay was performed on a Tecan freedom Evo200 robot with 384-well plates in singlicate for the three 11-mer PTEN variants and the 13-mer PTEN peptide as described in [31, 32]. Briefly, prior to interaction assay, 2.5 μL of streptavidin resin was saturated in each well with 20 μL of biotinylated PBM peptides (42 μM) and then washed twice with an excess of free biotin, while the reference resin was incubated only with biotin. Right before the holdup experiment, the PDZ library was spiked with an internal standard of lysozyme. Then, the biotin- or PBM-saturated resin was incubated, each in a distinct well of a 384-well plate, with complete cell lysates diluted so that the concentration of the tag-PDZ present in the crude extract is adjusted at 4 μM. After a sufficient time to reach complex equilibrium (15 min.), a fast and mild filtration step is performed and the tag-PDZ concentrations were measured by capillary electrophoresis instrument (LabChip GXII, PerkinElmer, Massachusets, USA). Standard markers were used to convert migration time into molecular weight on the LabChip software and inappropriate molecular weight markers were corrected or excluded.
Holdup data quality check and processing […]

[1] = PDZ domain PARD3-1, first of two lines so named (r186)

For CC[C@H](C)[C@H](NC(=O)[C@H](CCC(N)=O)NC(=O)[C@@H](NC(=O)[C@H](Cc1c[nH]cn1)NC(=O)[C@H](CCC(N)=O)NC(=O)[C@H](CC(=O)O)NC(=O)[C@H](CCC(=O)O)NC(=O)[C@H](CC(=O)O)NC(=O)CCC(=O)NCCCOCCOCCOCCCNC(=O)CCCC[C@@H]1SC[C@@H]2NC(=O)N[C@@H]21)[C@@H](C)O)C(=O)N[C@H](C(=O)N[C@@H](CCCNC(=N)N)C(=O)N[C@H](C(=O)O)C(C)C)[C@@H](C)O [PTEN_KR] ({X1-Suc}-DEDQHTQITRV-OH), the “number of additional new PDZ partners not detected for PTEN_11” value (BI>0.20, compared with PTEN_11) was at least 11, the BI (PDZ domain MPDZ-2) was 0.021 and the BI (PDZ domain MPDZ-3) was 0.034. It also gave a BI (PDZ domain MPDZ-4) of -0.021, a BI (PDZ domain MPDZ-5) of 0.058 and a BI (PDZ domain MPDZ-6) of 0.033. It also gave a BI (PDZ domain MPDZ-7) of 0.267, a BI (PDZ domain MPDZ-8) of 0.128 and a BI (PDZ domain MPDZ-13) of 0.454. For the same compound, the BI (PDZ domain MPP1-1) was -0.046, the BI (PDZ domain MPP2-1) was -0.03 and the BI (PDZ domain MPP3-1) was -0.023. The BI (PDZ domain MPP4-1) was 0.067, the BI (PDZ domain MPP5-1) was -0.045 and the BI (PDZ domain MPP6-1) was -0.058. The BI (PDZ domain MPP7-1) was -0.023, the BI (PDZ domain NHERF1-2) was 0.063 and the BI (PDZ domain NHERF3-2) was 0.002. For the same compound, the BI (PDZ domain NHERF3-3) was 0.185, the BI (PDZ domain NHERF4-1) was 0.041 and the BI (PDZ domain NHERF4-2) was -0.071. It also gave a BI (PDZ domain NHERF4-3) of -0.035, a BI (PDZ domain NHERF4-4) of 0.01 and a BI (PDZ domain NOS1-1) of 0.039. For the same compound, the BI [1] was 0.3, the “Log(Kd)” value [1] was 4.255 and the BI (PDZ domain PARD3-1, second of two lines so named (r187)) was -0.046. It also gave a BI (PDZ domain PARD3B-1) of -0.02, a BI (PDZ domain PARD3B-2) of -0.019 and a BI (PDZ domain PARD3B-3) of -0.035. The BI (PDZ domain PARD6G-1) was -0.023, the BI (PDZ domain PDLIM1-1) was -0.2 and the BI (PDZ domain PDLIM2-1) was 0.034. The BI (PDZ domain PDLIM3-1) was -0.065, the BI (PDZ domain PDLIM4-1) was -0.087 and the BI (PDZ domain PDLIM5-1) was 0.086. For the same compound, the BI (PDZ domain PDLIM7-1) was -0.042, the BI (PDZ domain PDZD2-1) was -0.056 and the BI (PDZ domain PDZD2-3) was -0.096. The BI (PDZ domain PDZD2-4) was -0.092, the BI (PDZ domain PDZD2-5) was -0.089 and the BI (PDZ domain PDZD2-6) was 0.089. For the same compound, the BI (PDZ domain PDZD4-1) was 0.031, the BI (PDZ domain PDZD7-1) was -0.024 and the BI (PDZ domain PDZD7-2) was -0.039. The BI (PDZ domain PDZD7-3) was 0.756, the BI (PDZ domain PDZD8-1) was 0.006 and the BI (PDZ domain PDZD11-1) was -0.048. For the same compound, the BI (PDZ domain PDZRN4-1) was 0.048, the BI (PDZ domain PDZRN4-2) was -0.071 and the BI (PDZ domain PPP1R9A-1) was 0.012. It also gave a BI (PDZ domain PPP1R9B-1) of 0.038, a BI (PDZ domain PREX2-2) of -0.004 and a BI (PDZ domain PRX-1) of 0.025. For the same compound, the BI (PDZ domain PSMD9-1) was -0.039, the BI (PDZ domain PTPN3-1) was 0.12 and the BI (PDZ domain PTPN4-1) was -0.038. For the same compound, the BI (PDZ domain PTPN13-1) was -0.017, the BI (PDZ domain PTPN13-5) was 0.096 and the BI (PDZ domain RAPGEF2-1) was -0.11. It also gave a BI (PDZ domain RHPN2-1) of -0.087, a BI (PDZ domain RIMS1-1) of 0.013 and a BI (PDZ domain SCRIB-1) of 0.042. It also gave a BI (PDZ domain SCRIB-2) of 0.147, a BI (PDZ domain SCRIB-4) of 0.039 and a BI (PDZ domain SDCBP-2) of -0.067. For the same compound, the BI (PDZ domain SHANK1-1) was 0.547, the BI (PDZ domain SHANK3-1) was 0.554 and the BI (PDZ domain SHROOM2-1) was 0.058. It also gave a BI (PDZ domain SHROOM3-1) of 0.042, a BI (PDZ domain SHROOM4-1) of -0.148 and a BI (PDZ domain SIPA1L2-1) of 0.064. It also gave a BI (PDZ domain SIPA1L3-1) of -0.006, a BI (PDZ domain SNTA1-1) of 0.395 and a BI (PDZ domain SNTB1-1) of 0.503. For the same compound, the BI (PDZ domain SNTG1-1) was 0.076, the BI (PDZ domain SNTG2-1) was 0.383 and the BI (PDZ domain STXB4-1) was -0.075. For the same compound, the BI (PDZ domain SYNJ2BP-1) was -0.026, the BI (PDZ domain SYNP2-1) was -0.044 and the BI (PDZ domain SYNPO2L-1) was -0.021. For the same compound, the BI (PDZ domain TIAM2-1) was 0.037, the BI (PDZ domain TJP1-2) was -0.006 and the BI (PDZ domain TJP1-3) was 0.099. For the same compound, the BI (PDZ domain TJP2-1) was 0.086, the BI (PDZ domain TJP2-2) was -0.005 and the BI (PDZ domain TJP2-3) was -0.025. The BI (PDZ domain TJP3-2) was 0.112, the BI (PDZ domain TJP3-3) was 0.12 and the BI (PDZ domain TX1B3-1) was -0.019. It also gave a BI (PDZ domain USH1C-1) of -0.098, a BI (PDZ domain USH1C-2) of -0.039 and a BI (PDZ domain USH1C-3) of -0.061. The “number of PDZ domains identified as potential binders (BI>0.20)” value (holdup, singlicate, threshold BI>0.20) was 37 PDZ domains, the “maximal BI” value (holdup, singlicate, highest BI in the PDZome profile, BI standard error ~0.07) was 0.86 and the “binding of several PDZ domains (in words)” value (including several ones from MAGI and NHERF) was “detectably bound”. The “Max BI” value (maximum over PDZome) was 0.86 and the “number of partners detected for PTEN_KR and not for PTEN_Ac” value (over a total of 37) was 8.
